Experiments:
[1] = target: T1, rSsoPK4(284–635) (Saccharolobus solfataricus, UniProt Q97U41); test: Filter paper [γ-32P]ATP kinase assay with MBP as phosphoacceptor, ATP routinely 100 µM, 5 mM MgCl2 and 5 mM MnCl2, 50 mM MOPS pH 7.0, 65 °C, in the presence of nucleotide effectors.; format: biochemical
T1 construct: gene SSO3182; residues 284–635 (catalytic and part of central helical repeat domain), N-terminal S-tag, C-terminal 33-residue fusion domain with polyhistidine motif, pET-29b, expressed in E. coli
T1 sequence (Q97U41 284-635): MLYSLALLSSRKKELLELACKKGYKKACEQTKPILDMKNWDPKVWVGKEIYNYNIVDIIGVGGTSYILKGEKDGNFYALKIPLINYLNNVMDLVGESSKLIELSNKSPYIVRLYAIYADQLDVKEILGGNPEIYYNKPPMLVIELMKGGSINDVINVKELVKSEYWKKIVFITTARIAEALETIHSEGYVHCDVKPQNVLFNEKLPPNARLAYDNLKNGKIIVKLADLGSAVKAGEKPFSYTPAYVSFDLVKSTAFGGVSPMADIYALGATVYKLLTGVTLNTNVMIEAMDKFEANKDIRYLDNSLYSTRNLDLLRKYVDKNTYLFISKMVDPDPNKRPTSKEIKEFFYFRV
Description: (§1) Protein kinase activity was routinely assayed by the filter paper method of Corbin and Reimann as modified by Lower and Kennelly. The final volume of the assays was typically 50 μL. The quantity of rSsoPK4 assayed ranged from 0.1 to 5.0 µg. Both MgCl2 and MnCl2 were included at a final concentration of 5 mM each. The final concentration of [γ-^32P]ATP was 100 μM. The specific activity of the [γ-^32P]ATP generally ranged from 2 to 5 × 10^15 cpm/mol. Phosphoacceptor proteins were generally present at a concentration of 0.5–1.0 µg/µL. The assay mixture was typically incubated for a period of 30 min to one hour at 65 °C in 50 mM MOPS pH 7.0. On occasion, the proteins within the assay mixture were resolved by SDS-PAGE in order to identify the specific polypeptides that were phosphorylated. Radiolabeled species were visualized using an Instant Imager from Packard (Downers Grove, IL, USA).

[2] = system: rSsoPK4(284–635); test: Protein kinase activity assay (filter paper method, [γ-32P]ATP, 65 °C) of rSsoPK4(284–635); format: biochemical, Sulfolobus solfataricus; settings: for Vmax in the presence of CoAS-SCoA: CoAS-SCoA 1 mM
Description: as §1

[3] = system: rSsoPK4(284–635)T606D/S611D; test: Protein kinase activity assay of rSsoPK4(284–635)T606D/S611D; format: biochemical, Sulfolobus solfataricus
[4] = system: rSsoPK4(284–635) T592D/T606D/S611D; test: Protein kinase activity assay of rSsoPK4(284–635) T592D/T606D/S611D; format: biochemical, Sulfolobus solfataricus; settings: MBP as substrate (Figure 9)
Description: Figure 9 CoAS-SCoA activates rSsoPK4(284–635), but not rSsoPK4(284–635) T592D/T606D/S611D, in a concentration-dependent manner. The activity of rSsoPK4(284–635) (OPEN […]) and rSsoPK4(284–635) T592D/T606D/S611D (OPEN CIRCLES) were assayed, in duplicate, in the presence of the indicated concentrations of CoAS-SCoA using MBP as substrate. Shown is a plot of the activity relative to that measured in the absence of CoAS-SCoA, which was normalized as 1.0, plus or minus mean average deviation.

[5] = substrate: Nc1ncnc2c1ncn2[C@@H]1O[C@H](COP(=O)(O)OP(=O)(O)OP(=O)(O)O)[C@@H](O)[C@H]1O; test: Filter paper [32P]phosphate incorporation kinase assay with varied [γ-32P]ATP and mixed histones fixed at 70 µM as phosphoacceptor, 5 mM MgCl2 and 5 mM MnCl2, 50 mM MOPS pH 7.0, 65 °C; Lineweaver-Burk plot.; format: biochemical
Description: Protein kinase activity was routinely assayed by the filter paper method of Corbin and Reimann [18] as modified by Lower and Kennelly [19]. The final volume of the assays was typically 50 μL. The quantity of rSsoPK4 assayed ranged from 0.1 to 5.0 µg. Both MgCl2 and MnCl2 were included at a final concentration of 5 mM each. The final concentration of [γ-^32P]ATP was 100 μM. The specific activity of the [γ-^32P]ATP generally ranged from 2 to 5 × 10^15 cpm/mol. Phosphoacceptor proteins were generally present at a concentration of 0.5–1.0 µg/µL. The assay mixture was typically incubated for a period of 30 min to one hour at 65 °C in 50 mM MOPS pH 7.0. On occasion, the proteins within the assay mixture were resolved by SDS-PAGE in order to identify the specific polypeptides that were phosphorylated. Radiolabeled species were visualized using an Instant Imager from Packard (Downers Grove, IL, USA).

Molecule: Nc1ncnc2c1ncn2[C@@H]1O[C@H](COP(=O)(O)OP(=O)(O)O)[C@@H](O)[C@H]1O [ADP, adenosine 5'-diphosphate]
- IC50 [1]: 190 µM

Molecule: CC(C)(COP(=O)(O)OP(=O)(O)OC[C@H]1O[C@@H](n2cnc3c(N)ncnc32)C(O)[C@H]1OP(=O)(O)O)[C@@H](O)C(=O)NCCC(=O)NCCSSCCNC(=O)CCNC(=O)[C@H](O)C(C)(C)COP(=O)(O)OP(=O)(O)OC[C@H]1O[C@@H](n2cnc3c(N)ncnc32)C(O)[C@H]1OP(=O)(O)O (some centres unmarked) [CoAS-SCoA, oxidized Coenzyme A]
- Vmax in the presence of CoAS-SCoA ([2]; protein substrate MBP (3.7 without)): 4.8 nmol/min/mg
- Vmax in the presence of CoAS-SCoA ([2]; protein substrate aIF2α (4.2 without)): 2.9 nmol/min/mg
- effect on protein kinase activity toward MBP ([2]; MBP substrate, compounds at 1 mM (Figure 8)): stimulate protein kinase activity toward MBP several-fold
- shift (lowering) of Km for aIF2α by oxidized CoA ([2]; from ~48 µM in absence to ~6 µM in presence of oxidized CoA): ~ 8 fold
- sensitivity of activity to oxidized CoA [3]: no longer sensitive
- sensitivity of activity to oxidized CoA [4]: no longer sensitive

B1: rSsoPK4(284–635) (Saccharolobus solfataricus P2) (protein)
chain: T1 sequence (Q97U41 284-635)
notes: residues 284–635 (catalytic and part of central helical repeat domain), N-terminal S-tag, C-terminal 33-residue fusion domain with polyhistidine motif, pET-29b, expressed in E. coli
- Km [5]: 100 µM
